Data as given in PubChem BioAssay (NCI).
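Each compound was tested at five concentrations against cells in 96-well plates for 48 hours. GI50 is the concentration that inhibits growth by half. At the TGI there is no net growth.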

Key:
Test in all cases: growth of human tumour cells (NCI), 48 h
[1] = test system: OVCAR-4 ovarian
[2] = test system: UACC-257 melanoma
[3] = test system: CCRF-CEM leukemia
[4] = test system: MDA-MB-231 breast
[5] = test system: A549 NSCLC
[6] = test system: HS 578T breast
[7] = test system: NCI-H226 lung
[8] = test system: K-562 leukemia
[9] = test system: MOLT-4 leukemia
[10] = test system: HOP-62 NSCLC
[11] = test system: SR leukemia
[12] = test system: SNB-19 CNS
[13] = test system: NCI/ADR-RES ovarian
[14] = test system: MALME-3M melanoma
[15] = test system: RPMI-8226 leukemia
[16] = test system: MCF7 breast
[17] = test system: SF-295 CNS
[18] = test system: LOX IMVI melanoma
[19] = test system: HCC-2998 colon
[20] = test system: SK-MEL-2 melanoma
[21] = test system: NCI-H522 lung
[22] = test system: SK-MEL-5 melanoma
[23] = test system: IGROV1 ovarian
[24] = test system: SF-268 CNS
[25] = test system: HCT-15 colon
[26] = test system: TK-10 renal
[27] = test system: SK-MEL-28 melanoma
[28] = test system: PC-3 prostate
[29] = test system: A498 renal
[30] = test system: ACHN renal
[31] = test system: SN12C renal
[32] = test system: UACC-62 melanoma
[33] = test system: OVCAR-3 ovarian
[34] = test system: HOP-92 NSCLC
[35] = test system: OVCAR-5 ovarian
[36] = test system: SNB-75 CNS
[37] = test system: UO-31 renal
[38] = test system: NCI-H460 lung
[39] = test system: SF-539 CNS
[40] = test system: MDA-MB-435
[41] = test system: OVCAR-8 ovarian
[42] = test system: EKVX NSCLC
[43] = test system: U251 CNS
[44] = test system: HL-60(TB) leukemia
[45] = test system: CAKI-1 renal
[46] = test system: DU-145 prostate
[47] = test system: NCI-H23 lung
[48] = test system: HT29 colon
[49] = test system: BT-549 breast
[50] = test system: SW-620 colon
[51] = test system: 786-0 renal
[52] = test system: HCT-116 colon
[53] = test system: KM12 colon
[54] = test system: T-47D breast
[55] = test system: M14 melanoma
[56] = test system: RXF 393 renal
[57] = test system: COLO 205 colon
[58] = test system: SK-OV-3 ovarian

For `CC1=C(C)C(=O)OC([C@](C)(O)[C@]2(O)CC[C@@]3(O)[C@@H]4C[C@H]5O[C@]56CC=CC(=O)[C@]6(C)[C@H]4CC[C@]23COC(=O)c2ccc(C)o2)C1` (some centres not stated), the TGI [1] was over 34.1 µM, the TGI [2] was over 20.9 µM and the TGI [3] was over 35.4 µM. The TGI [4] was over 24.4 µM, the TGI [5] was over 32.4 µM and the TGI [6] was over 51.6 µM. It also gave a TGI [7] of over 33 µM, a TGI [8] of over 43.5 µM and a TGI [9] of over 22.4 µM. The TGI [10] was over 21 µM, the TGI [11] was over 100 µM and the TGI [12] was over 24.7 µM. The TGI [13] was over 79.7 µM, the TGI [14] was over 31.8 µM and the TGI [15] was over 33.2 µM. It also gave a GI50 [16] of over 100 µM, a TGI [16] of over 100 µM and a TGI [17] of over 32.6 µM.
`O=CC1(C2(C=O)c3ccccc3-c3ccccc32)c2ccccc2-c2ccccc21` showed a GI50 [18] of 1890 nM, a TGI [18] of 3.98 µM and a GI50 [19] of over 100 µM. The TGI [19] was over 100 µM, the GI50 [20] was 2000 nM and the TGI [20] was 4.82 µM. It also gave a GI50 [1] of 2020 nM, a TGI [1] of 5.26 µM and a GI50 [21] of 2010 nM. It also gave a TGI [21] of 4.38 µM, a GI50 [22] of 1950 nM and a TGI [22] of 4.02 µM. For the same compound, the GI50 [23] was 323 nM, the TGI [23] was 924 nM and the GI50 [2] was 2160 nM. For the same compound, the TGI [2] was 5.29 µM, the GI50 [24] was 2370 nM and the TGI [24] was 6.03 µM. The GI50 [25] was 1680 nM, the TGI [25] was 3.66 µM and the GI50 [26] was 2630 nM. The TGI [26] was 5.51 µM, the GI50 [27] was 1720 nM and the TGI [27] was 3.38 µM. It also gave a GI50 [3] of 3.77 µM, a TGI [3] of 11.6 µM and a GI50 [28] of 1440 nM. It also gave a TGI [28] of 4.65 µM, a GI50 [29] of 2330 nM and a TGI [29] of 5.36 µM. It also gave a GI50 [4] of 2800 nM, a TGI [4] of 6.98 µM and a GI50 [30] of 1830 nM. The TGI [30] was 4.19 µM, the GI50 [31] was 2340 nM and the TGI [31] was 5.83 µM. The GI50 [32] was 2690 nM, the TGI [32] was 6.25 µM and the GI50 [33] was 1400 nM. The TGI [33] was 3.39 µM, the GI50 [34] was 1580 nM and the TGI [34] was 3.83 µM. It also gave a GI50 [35] of 3.21 µM, a TGI [35] of 6.34 µM and a GI50 [36] of 3.29 µM. For the same compound, the TGI [36] was 8.08 µM, the GI50 [37] was 1920 nM and the TGI [37] was 4.32 µM. For the same compound, the GI50 [38] was 1560 nM, the TGI [38] was 2850 nM and the GI50 [39] was 2010 nM. It also gave a TGI [39] of 4.37 µM, a GI50 [40] of 1920 nM and a TGI [40] of 4.51 µM. For the same compound, the GI50 [6] was 2700 nM, the TGI [6] was 7.49 µM and the GI50 [7] was 3.3 µM. For the same compound, the TGI [7] was 7.24 µM, the GI50 [41] was 2200 nM and the TGI [41] was 6.08 µM. It also gave a GI50 [42] of 1960 nM, a TGI [42] of 5.24 µM and a GI50 [43] of 2230 nM. The TGI [43] was 5.6 µM, the GI50 [44] was 1750 nM and the TGI [44] was 3.21 µM. It also gave a GI50 [8] of 2300 nM, a TGI [8] of over 22.6 µM and a GI50 [9] of 1380 nM. It also gave a TGI [9] of 3.33 µM, a GI50 [10] of 6.17 µM and a TGI [10] of 10.4 µM. The GI50 [45] was 1270 nM, the TGI [45] was 3.62 µM and the GI50 [11] was 1650 nM. For the same compound, the TGI [11] was 3.43 µM, the GI50 [46] was 2290 nM and the TGI [46] was 5.83 µM. The GI50 [13] was 2540 nM, the TGI [13] was 6.99 µM and the GI50 [47] was 2110 nM. The TGI [47] was 4.82 µM, the GI50 [14] was 2680 nM and the TGI [14] was 5.94 µM. For the same compound, the GI50 [48] was 1320 nM, the TGI [48] was 2510 nM and the GI50 [49] was 2010 nM. It also gave a TGI [49] of 4.84 µM, a GI50 [50] of 1800 nM and a TGI [50] of 3.53 µM. The GI50 [51] was 2160 nM and the TGI [51] was 5.34 µM.
In the case of `COC(=O)C(Cc1ccccc1)C(=O)C(CC(=O)OC(C)(C)C)NC(=O)OC(C)(C)C` (configuration not stated), the GI50 [25] is reported as 28.2 µg/mL, the GI50 [52] is reported as 26.5 µg/mL and the TGI [52] is reported as 87.9 µg/mL. It also gave a GI50 [5] of 26.2 µg/mL, a GI50 [37] of 24.7 µg/mL and a TGI [37] of 66.8 µg/mL. For the same compound, the GI50 [53] was 59.7 µg/mL.
`COC(=O)c1ccc(C2SCC(=O)N2NC(=O)C(O)c2ccccc2)cc1` (configuration not stated) was tested, and the GI50 [18] was over 100000 nM, the TGI [18] was over 100 µM and the GI50 [19] was over 100 µM. The TGI [19] was over 100 µM, the GI50 [20] was over 100000 nM and the TGI [20] was over 100 µM. For the same compound, the GI50 [1] was over 100000 nM, the TGI [1] was over 100 µM and the GI50 [54] was over 100 µM. For the same compound, the TGI [54] was over 100 µM, the GI50 [21] was over 100000 nM and the TGI [21] was over 100 µM. It also gave a GI50 [22] of over 100000 nM, a TGI [22] of over 100 µM and a GI50 [23] of over 100000 nM. It also gave a TGI [23] of over 100000 nM, a GI50 [2] of over 100000 nM and a TGI [2] of over 100 µM. For the same compound, the GI50 [24] was over 100000 nM, the TGI [24] was over 100 µM and the GI50 [25] was over 100000 nM. The TGI [25] was over 100 µM, the GI50 [55] was over 100 µM and the TGI [55] was over 100 µM. For the same compound, the GI50 [26] was over 100000 nM, the TGI [26] was over 100 µM and the GI50 [27] was over 100000 nM. The TGI [27] was over 100 µM, the GI50 [3] was over 100 µM and the TGI [3] was over 100 µM. For the same compound, the GI50 [28] was over 100000 nM, the TGI [28] was over 100 µM and the GI50 [29] was over 100000 nM. It also gave a TGI [29] of over 100 µM, a GI50 [4] of over 100000 nM and a TGI [4] of over 100 µM. It also gave a GI50 [30] of over 100000 nM, a TGI [30] of over 100 µM and a GI50 [31] of over 100000 nM. It also gave a TGI [31] of over 100 µM, a GI50 [32] of over 100000 nM and a TGI [32] of over 100 µM. It also gave a GI50 [33] of over 100000 nM, a TGI [33] of over 100 µM and a GI50 [34] of over 100000 nM. For the same compound, the TGI [34] was over 100 µM, the GI50 [52] was over 100 µM and the TGI [52] was over 100 µM. It also gave a GI50 [35] of over 100 µM, a TGI [35] of over 100 µM and a GI50 [36] of over 100 µM. It also gave a TGI [36] of over 100 µM, a GI50 [5] of over 100 µM and a TGI [5] of over 100 µM. For the same compound, the GI50 [37] was over 100000 nM, the TGI [37] was over 100 µM and the GI50 [38] was over 100000 nM. The TGI [38] was over 100000 nM, the GI50 [39] was over 100000 nM and the TGI [39] was over 100 µM. It also gave a GI50 [40] of over 100000 nM, a TGI [40] of over 100 µM and a GI50 [6] of over 100000 nM. The TGI [6] was over 100 µM, the GI50 [7] was over 100 µM and the TGI [7] was over 100 µM. The GI50 [41] was over 100000 nM, the TGI [41] was over 100 µM and the GI50 [56] was over 100 µM. The TGI [56] was over 100 µM, the GI50 [42] was over 100000 nM and the TGI [42] was over 100 µM. It also gave a GI50 [43] of over 100000 nM, a TGI [43] of over 100 µM and a GI50 [8] of over 100000 nM. It also gave a TGI [8] of over 100 µM, a GI50 [9] of over 100000 nM and a TGI [9] of over 100 µM. For the same compound, the GI50 [53] was over 100 µM, the TGI [53] was over 100 µM and the GI50 [10] was over 100 µM. The TGI [10] was over 100 µM, the GI50 [45] was over 100000 nM and the TGI [45] was over 100 µM. The GI50 [46] was over 100000 nM, the TGI [46] was over 100 µM and the GI50 [12] was over 100 µM. For the same compound, the TGI [12] was over 100 µM, the GI50 [47] was over 100000 nM and the TGI [47] was over 100 µM. For the same compound, the GI50 [14] was over 100000 nM, the TGI [14] was over 100 µM and the GI50 [57] was over 100 µM. It also gave a TGI [57] of over 100 µM, a GI50 [48] of over 100000 nM and a TGI [48] of over 100000 nM. For the same compound, the GI50 [49] was over 100000 nM, the TGI [49] was over 100 µM and the GI50 [50] was over 100000 nM. It also gave a TGI [50] of over 100 µM, a GI50 [15] of over 100 µM and a TGI [15] of over 100 µM. For the same compound, the GI50 [58] was over 100 µM, the TGI [58] was over 100 µM and the GI50 [51] was over 100000 nM. For the same compound, the TGI [51] was over 100 µM, the GI50 [16] was over 100 µM and the TGI [16] was over 100 µM. The GI50 [17] was over 100 µM and the TGI [17] was over 100 µM.
